Assay results reported in patent US7696249B2, “Diphenyl urea derivatives” (ARPIDA AG, priority 2005, dated 2010).
≈ marks a conversion by molar mass, not a printed value. Like-named read-outs stand apart in the source and are kept apart here.

Tests used:
Type in all cases: cell-based
S. epidermidis MRSE 70 = experiment: MIC, broth dilution antimicrobial susceptibility testing (CLSI); conditions: for MIC: Staphylococcus epidermidis, MRSE, pathogens for nasal colonization, read-out: Minimum Inhibitory Concentration (MIC) S. epidermidis MRSE 70
Description: (§1) Antimicrobial susceptibility testing was performed in accordance with the Clinical and Laboratory Standards Institute (CLSI).
(§2) Clinical and Laboratory Standards Institute (CLSI; formerly NCCLS): Methods for Dilution Antimicrobial Susceptibility Tests for Bacteria That Grow Aerobically; Approved Standard—Seventh Edition (2006). Clinical and Laboratory Standards Institute document M7-A7.

E. faecalis VanB E80-8 = experiment: as above; conditions: for MIC: Enterococcus faecalis, VANBE808, pathogens for skin infections, read-out: Minimum Inhibitory Concentration (MIC) E. faecalis VanB E80-8; for Minimum Inhibitory Concentration (MIC) E. faecalis VanB E80-8: pathogens for gastro-intestinal infections
Description: as §1, §2

S. aureus MRSA 101 = experiment: as above; conditions: for MIC: Staphylococcus aureus, MRSA, pathogens for nasal colonization, read-out: Minimum Inhibitory Concentration (MIC) S. aureus MRSA 101; for Minimum Inhibitory Concentration (MIC) S. aureus MRSA 101: pathogens for ocular infections
Description: as §1, §2

S. aureus ATCC 25923 = experiment: as above; conditions: Staphylococcus aureus, ATCC25923
Description: as §1, §2

S. aureus MRSA 39 = experiment: as above; conditions: for MIC: Staphylococcus aureus, MRSA, pathogens for nasal colonization, read-out: Minimum Inhibitory Concentration (MIC) S. aureus MRSA 39
Description: as §1, §2

S. pyogenes GAS-1 = experiment: MIC, CLSI methodology with Todd Hewitt Broth without blood; conditions: for MIC: Streptococcus pyogenes, GAS1, pathogens for ocular infections, read-out: Minimum Inhibitory Concentration (MIC) S. pyogenes GAS-1; for Minimum Inhibitory Concentration (MIC) S. pyogenes GAS-1: pathogens for skin infections
Description: (§3) Antimicrobial susceptibility testing was performed in accordance with the Clinical and Laboratory Standards Institute (CLSI). Clinical and Laboratory Standards Institute (CLSI; formerly NCCLS): Methods for Dilution Antimicrobial Susceptibility Tests for Bacteria That Grow Aerobically; Approved Standard—Seventh Edition (2006). Clinical and Laboratory Standards Institute document M7-A7. Streptococci (S. pneumoniae, S. pyogenes, S. viridans) were tested following the CLSI methodology with the exception that Todd Hewitt Broth without blood was used. Anaerobic bacteria (P. acnes, B. distasonis) were tested following CLSI (formerly NCCLS) guidelines except for using microbroth dilutions in Wilkins Chalgren Broth. National Committee for Clinical Laboratory Standards (NCCLS). Methods for Anti-microbial Susceptibility Testing of Anaerobic Bacteria; Approved Standard—Sixth Edition (2004). NCCLS document M11-A6.

S. pneumoniae 1/1 = experiment: as above; conditions: Streptococcus pneumoniae, pathogens for ocular infections, read-out: Minimum Inhibitory Concentration (MIC) S. pneumoniae 1/1
Description: as §3

S. viridans UHC 7 = experiment: as above; conditions: Streptococcus viridans, UHC7; pathogens for dental infections; read-out: Minimum Inhibitory Concentration (MIC) S. viridans UHC 7
Description: as §3

B. distasonis 5770 = experiment: MIC, anaerobic bacteria, microbroth dilutions in Wilkins Chalgren Broth; conditions: Parabacteroides distasonis, pathogens for gastro-intestinal infections, read-out: Minimum Inhibitory Concentration (MIC) B. distasonis 5770
Description: as §3, with “(CLSI).” for “(CLSI). Clinical and Laboratory Standards Institute (CLSI; formerly NCCLS): Methods for Dilution Antimicrobial Susceptibility Tests for Bacteria That Grow Aerobically; Approved Standard—Seventh Edition (2006). Clinical and Laboratory Standards Institute document M7-A7.”

P. acnes 6390 = experiment: as above; conditions: Cutibacterium acnes, pathogens for skin infections, read-out: Minimum Inhibitory Concentration (MIC) P. acnes 6390
Description: as §3, with “(CLSI).” for “(CLSI). Clinical and Laboratory Standards Institute (CLSI; formerly NCCLS): Methods for Dilution Antimicrobial Susceptibility Tests for Bacteria That Grow Aerobically; Approved Standard—Seventh Edition (2006). Clinical and Laboratory Standards Institute document M7-A7.”

[1] = pathogens for ocular infections
[2] = pathogens for nasal colonization, read-out: Minimum Inhibitory Concentration (MIC) S. aureus ATCC 25923
[3] = pathogens for ocular infections, read-out: Minimum Inhibitory Concentration (MIC) S. aureus 25923

| Structure (SMILES) | MIC (S. epidermidis MRSE 70) | Minimum Inhibitory Concentration (MIC) S. epidermidis MRSE 70 (S. epidermidis MRSE 70; [1]) | Minimum Inhibitory Concentration (MIC) S. epidermidis MRSE 70 (S. epidermidis MRSE 70; pathogens for skin infections) | MIC (E. faecalis VanB E80-8) | Minimum Inhibitory Concentration (MIC) E. faecalis VanB E80-8 (E. faecalis VanB E80-8) | MIC (S. aureus MRSA 101) | Minimum Inhibitory Concentration (MIC) S. aureus MRSA 101 (S. aureus MRSA 101) | MIC (S. aureus ATCC 25923; [2]) | MIC (S. aureus ATCC 25923; [3]) | MIC (S. aureus MRSA 39) | Minimum Inhibitory Concentration (MIC) S. aureus MRSA 39 (S. aureus MRSA 39; [1]) | Minimum Inhibitory Concentration (MIC) S. aureus MRSA 39 (S. aureus MRSA 39; pathogens for skin infections) | MIC (S. pyogenes GAS-1) | Minimum Inhibitory Concentration (MIC) S. pyogenes GAS-1 (S. pyogenes GAS-1) | MIC (S. pneumoniae 1/1) | MIC (S. viridans UHC 7) | MIC (B. distasonis 5770) | MIC (P. acnes 6390) |
| --- | --- | --- | --- | --- | --- | --- | --- | --- | --- | --- | --- | --- | --- | --- | --- | --- | --- | --- |
| O=C(Nc1cc(F)cc(C(F)(F)F)c1)Nc1ccc(Cl)c(C(F)(F)F)c1 [Example 1, 1-(3-Fluoro-5-trifluoromethyl-phenyl)-3-(4-chloro-3-trifluoromethyl-phenyl)-urea] | 0.25 µg/mL (≈ 0.624 µM) | 0.25 micrograms/ml | 0.25 micrograms/ml | 1 µg/mL (≈ 2.5 µM) | 1 micrograms/ml | 0.125 µg/mL (≈ 0.312 µM) | 0.125 micrograms/ml | 0.125 µg/mL (≈ 0.312 µM) | 0.125 µg/mL (≈ 0.312 µM) | 0.125 µg/mL (≈ 0.312 µM) | 0.125 micrograms/ml | 0.125 micrograms/ml | 0.125 µg/mL (≈ 0.312 µM) | 0.125 micrograms/ml | 0.06 µg/mL (≈ 0.15 µM) | 0.5 µg/mL (≈ 1.25 µM) | 0.25 µg/mL (≈ 0.624 µM) | ≤ 0.03 µg/mL |
| O=C(Nc1cc(F)cc(C(F)(F)F)c1)Nc1ccc(Br)c(C(F)(F)F)c1 [Example 2, 1-(3-Fluoro-5-trifluoromethyl-phenyl)-3-(4-bromo-3-trifluoromethyl-phenyl)-urea] | 0.5 µg/mL (≈ 1.12 µM) | 0.5 micrograms/ml | 0.5 micrograms/ml | 1 µg/mL (≈ 2.25 µM) | 1 micrograms/ml | 0.25 µg/mL (≈ 0.562 µM) | 0.25 micrograms/ml | 0.125 µg/mL (≈ 0.281 µM) | 0.125 µg/mL (≈ 0.281 µM) | 0.125 µg/mL (≈ 0.281 µM) | 0.125 micrograms/ml | 0.125 micrograms/ml | 0.06 µg/mL (≈ 0.135 µM) | 0.06 micrograms/ml | ≤ 0.03 µg/mL | 0.5 µg/mL (≈ 1.12 µM) | 0.25 µg/mL (≈ 0.562 µM) | ≤ 0.03 µg/mL |
| Fc1cc(NC(=S)Nc2ccc(Cl)c(C(F)(F)F)c2)cc(C(F)(F)F)c1 [Example 3, 1-(3-Fluoro-5-trifluoromethyl-phenyl)-3-(4-chloro-3-trifluoromethyl-phenyl)-thiourea] | 0.25 µg/mL (≈ 0.6 µM) | 0.25 micrograms/ml | 0.25 micrograms/ml | 2 µg/mL (≈ 4.8 µM) | 2 micrograms/ml | 0.25 µg/mL (≈ 0.6 µM) | 0.25 micrograms/ml | 0.25 µg/mL (≈ 0.6 µM) | 0.25 µg/mL (≈ 0.6 µM) | 0.25 µg/mL (≈ 0.6 µM) | 0.25 micrograms/ml | 0.25 micrograms/ml | 0.5 µg/mL (≈ 1.2 µM) | 0.5 micrograms/ml | 0.5 µg/mL (≈ 1.2 µM) | 2 µg/mL (≈ 4.8 µM) | 0.5 µg/mL (≈ 1.2 µM) | ≤ 0.03 µg/mL |
